What all share (test): pre-steady-state half-reaction of the PLP form, aldimine decrease at […] nm
Holding throughout (type): biochemical

Experiment [1] has as its target T1, TaTT (transaminase from Thermobaculum terrenum) (Thermobaculum terrenum, UniProt D1CCW1, G40V/R42S/Y100F/S114R).
T1 construct: gene ilvE; N-terminal His6TEV-tag, expressed in E. coli BL21(DE3)pLys; tag cut by TEV for crystals (309 visible residues, 5 N-terminal and 3 C-terminal residues invisible); functional dimer
As to conditions: mP3O1; 50 mM CHES pH 9.0, 40 °C; no amino acceptor; constant from kobs vs. substrate; read-out: pH 9.0, CHES buffer, 40°C / KD, / mM.

The target of experiment [2] is T2, TaTT (transaminase from Thermobaculum terrenum) (Thermobaculum terrenum, UniProt D1CCW1, W31H/F38Y/G40V/R42S/Y100F).
T2 construct: gene ilvE; N-terminal His6TEV-tag, expressed in E. coli BL21(DE3)pLys; tag cut by TEV for crystals (309 visible residues, 5 N-terminal and 3 C-terminal residues invisible); functional dimer
Particulars: mP3O7; 50 mM Tris-HCl pH 8.0, 30 °C; no amino acceptor; constant from kobs vs. substrate; read-out: pH 8.0, Tris-HCl buffer, 30°C / KD, / mM.

The target in experiment [3] is T3, TaTT (transaminase from Thermobaculum terrenum) (Thermobaculum terrenum, UniProt D1CCW1, G40V/R42S/Y100F).
T3 construct: gene ilvE; N-terminal His6TEV-tag, expressed in E. coli BL21(DE3)pLys; tag cut by TEV for crystals (309 visible residues, 5 N-terminal and 3 C-terminal residues invisible); functional dimer
As to conditions: mP3; 50 mM CHES pH 9.0, 40 °C; no amino acceptor; constant from kobs vs. substrate; read-out: pH 9.0, CHES buffer, 40°C / KD, / mM.

The target in experiment [4] is T4, TaTT (transaminase from Thermobaculum terrenum) (Thermobaculum terrenum, UniProt D1CCW1).
T4 construct: gene ilvE; N-terminal His6TEV-tag, expressed in E. coli BL21(DE3)pLys; tag cut by TEV for crystals (309 visible residues, 5 N-terminal and 3 C-terminal residues invisible); functional dimer
As to conditions: 50 mM CHES pH 9.0, 40 °C; no amino acceptor; constant from kobs vs. substrate; read-out: pH 9.0, CHES buffer, 40°C / KD, / mM.

The target in experiment [5] is T5, TaTT (transaminase from Thermobaculum terrenum) (Thermobaculum terrenum, UniProt D1CCW1, G40V/Y100F).
T5 construct: gene ilvE; N-terminal His6TEV-tag, expressed in E. coli BL21(DE3)pLys; tag cut by TEV for crystals (309 visible residues, 5 N-terminal and 3 C-terminal residues invisible); functional dimer
As to conditions: mP2; 50 mM CHES pH 9.0, 40 °C; no amino acceptor; constant from kobs vs. substrate; read-out: pH 9.0, CHES buffer, 40°C / KD, / mM.

Experiment [6] addresses T6, TaTT (transaminase from Thermobaculum terrenum) (Thermobaculum terrenum, UniProt D1CCW1, S114R).
T6 construct: gene ilvE; N-terminal His6TEV-tag, expressed in E. coli BL21(DE3)pLys; tag cut by TEV for crystals (309 visible residues, 5 N-terminal and 3 C-terminal residues invisible); functional dimer
As to conditions: mO1; 50 mM CHES pH 9.0, 40 °C; no amino acceptor; constant from kobs vs. substrate; read-out: pH 9.0, CHES buffer, 40°C / KD, / mM.

T6 sequence (D1CCW1 entry or part of it S114R): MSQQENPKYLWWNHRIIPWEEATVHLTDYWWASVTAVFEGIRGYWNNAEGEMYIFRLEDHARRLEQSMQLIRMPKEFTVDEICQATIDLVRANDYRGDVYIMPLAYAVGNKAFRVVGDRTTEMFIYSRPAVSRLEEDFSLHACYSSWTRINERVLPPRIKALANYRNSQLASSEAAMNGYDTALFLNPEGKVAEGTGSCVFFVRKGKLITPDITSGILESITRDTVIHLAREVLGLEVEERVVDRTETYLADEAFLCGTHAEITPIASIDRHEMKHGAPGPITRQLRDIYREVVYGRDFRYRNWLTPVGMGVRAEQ
T5 sequence (D1CCW1 entry or part of it G40V/Y100F): as the sequence (D1CCW1 entry or part of it S114R) above, with G40V, Y100F, R114S counted along it
T4 sequence (D1CCW1 entry or part of it): as the sequence (D1CCW1 entry or part of it S114R) above, with R114S counted along it
T3 sequence (D1CCW1 entry or part of it G40V/R42S/Y100F): as the sequence (D1CCW1 entry or part of it S114R) above, with G40V, R42S, Y100F, R114S counted along it
T2 sequence (D1CCW1 entry or part of it W31H/F38Y/G40V/R42S/Y100F): as the sequence (D1CCW1 entry or part of it S114R) above, with W31H, F38Y, G40V, R42S, Y100F, R114S counted along it
T1 sequence (D1CCW1 entry or part of it G40V/R42S/Y100F/S114R): as the sequence (D1CCW1 entry or part of it S114R) above, with G40V, R42S, Y100F counted along it

Take `C[C@@H](N)c1ccccc1` [R-PEA, (R)-(+)-1-phenylethylamine]: the Kd in experiment [1] is 1.5 ± 0.5 mM; in experiment [2], 44 ± 8 mM; in experiment [3] it was 2.6 ± 0.4 mM; in experiment [4], 81 ± 8 mM; in experiment [5], 13 ± 2 mM; in experiment [6], 3.3 ± 1.2 mM.

Values taken from article PMC8320979, “Probing the role of the residues in the active site of the transaminase from Thermobaculum terrenum” (PLoS ONE, 2021).
